Assay results taken from EPA's ToxValDB 9.5 (doi:10.2903/j.efsa.2007.110r).
Converted amounts (≈) assume the structure as drawn.

What was measured:
[1] = tested on: Rattus norvegicus
[2] = tested on: Apis mellifera; conditions: acute; duration: 48 hours; oral; unspecified; mortality
[3] = tested on: Bird
[4] = tested on: Colinus virginianus; conditions: acute; oral; diet; mortality
[5] = tested on: Oncorhynchus mykiss; conditions: acute; duration: 96 hours; mortality
[6] = tested on: Pimephales promelas; conditions: chronic/long-term; duration: 28 days; growth
[7] = tested on: Tagia sp.
[8] = tested on: Daphnia magna; conditions: chronic/long-term; duration: 21 days; reproduction
[9] = tested on: Canidae; conditions: subchronic; duration: 90 days; oral; Dog Other; organ weight

N#Cc1c[nH]cc1-c1cccc2c1OC(F)(F)O2 [Fludioxonil] showed an LD50 ([1]; acute, oral, mortality) of over 5000 mg/kg, an NOAEL ([1]; chronic, duration: 2 years, oral, diet, organ weight) of 37 mg/kg-day and an NOAEL ([1]; reproduction developmental, reproduction) of 212 mg/kg-day. For the same molecule, the LD50 [2] was over 100 µg/piece, the LD50 ([3]; acute, oral, unspecified, mortality) was at least 2000 mg/kg and the NOEC ([3]; reproductive) was 11.1 mg/kg-day. It also gave an LC50 [4] of over 833 mg/kg-day, an LC50 [5] of 0.23 µg/mL (≈ 0.927 µM) and an NOEC [6] of 0.039 mg/L. The LC50 ([7]; acute, mortality) was over 1000 mg/kg, the NOEC ([7]; chronic/long-term) was 20 mg/kg and the NOEC [8] was 0.005 mg/L. The NOAEL [9] was 58.5 mg/kg-day.
